The target in the test is T1, PKCε (Homo sapiens, UniProt Q02156).
T1 sequence (Q02156 1-737): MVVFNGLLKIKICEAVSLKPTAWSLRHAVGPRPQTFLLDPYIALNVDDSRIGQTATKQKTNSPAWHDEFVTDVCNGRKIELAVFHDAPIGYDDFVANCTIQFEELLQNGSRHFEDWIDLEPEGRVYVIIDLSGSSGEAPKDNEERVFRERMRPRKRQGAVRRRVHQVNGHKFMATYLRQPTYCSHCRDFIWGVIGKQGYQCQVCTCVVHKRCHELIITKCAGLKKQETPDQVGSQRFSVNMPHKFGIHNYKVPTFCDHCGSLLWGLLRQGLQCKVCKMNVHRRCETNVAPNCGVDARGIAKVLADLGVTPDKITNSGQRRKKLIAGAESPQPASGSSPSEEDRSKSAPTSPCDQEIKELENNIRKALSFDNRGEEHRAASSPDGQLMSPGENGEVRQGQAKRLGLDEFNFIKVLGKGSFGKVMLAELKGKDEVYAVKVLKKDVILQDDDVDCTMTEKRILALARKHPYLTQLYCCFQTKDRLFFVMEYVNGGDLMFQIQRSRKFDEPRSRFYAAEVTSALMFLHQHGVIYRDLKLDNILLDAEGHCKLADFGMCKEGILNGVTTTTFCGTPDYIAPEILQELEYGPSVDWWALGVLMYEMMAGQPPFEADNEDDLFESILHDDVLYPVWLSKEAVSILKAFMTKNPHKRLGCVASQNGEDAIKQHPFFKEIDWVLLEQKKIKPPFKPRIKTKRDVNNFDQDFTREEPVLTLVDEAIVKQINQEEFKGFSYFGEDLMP
Kind of test: SPR. Format: binding.

`COc1cccc2c1C(=O)c1c(O)c3c(c(O)c1C2=O)C[C@@](O)(C(=O)CO)C[C@@H]3O[C@H]1C[C@H](N)[C@H](O)[C@H](C)O1` [Dox, Doxorubicin]: the Kd is 44.8 µM.

For orientation: Kd means the concentration at which binding is half-saturated. A higher Kd goes with lower affinity.

The values above are taken from article PMC10173194 (Journal of Advanced Research, 2022).
